21 molecules from patent publication US8580965B2, “Substituted sulfonamide compounds” (Gruenenthal GmbH, priority 2006, dated 2013) can be followed below.

For the assay, the target named is T1, human B1R receptor (bradykinin 1 receptor) (Homo sapiens, UniProt P46663).
T1 construct: host or cells: CHO K1 cells (hB1R cells)
T1 sequence (P46663 1-353): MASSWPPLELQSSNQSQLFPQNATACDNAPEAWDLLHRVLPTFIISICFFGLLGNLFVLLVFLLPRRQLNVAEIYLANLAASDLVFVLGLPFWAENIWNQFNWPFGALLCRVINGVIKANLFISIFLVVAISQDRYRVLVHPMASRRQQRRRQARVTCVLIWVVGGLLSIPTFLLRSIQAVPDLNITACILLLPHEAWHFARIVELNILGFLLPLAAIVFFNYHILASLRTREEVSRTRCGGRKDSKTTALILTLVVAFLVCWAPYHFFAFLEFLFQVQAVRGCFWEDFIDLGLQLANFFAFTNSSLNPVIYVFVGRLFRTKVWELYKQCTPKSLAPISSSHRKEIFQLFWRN
The assay can be described thus: FLIPR Ca2+ assay (Fluo-4) on CHO K1 cells stably transfected with the human B1R gene; % activation and % inhibition at 10 μM. In kind it is cell-based. Conditions: CHO-K1, test substance 10 μM; CHO K1 hB1R cells; Ca2+ inflow after 0.5 nM Lys-Des-Arg9-bradykinin; read-out: B1R antagonism, human [10 μM] % inhibition. Here is the method: The agonistic or antagonistic action of substances can be quantified on the bradykinin receptor 1 (B1R) of the species human and rat with ectopically expressing cell lines (CHO K1 cells) and with the aid of a Ca^2+-sensitive dye (Fluo-4) using a fluorescent imaging plate reader (FLIPR). The indication in % activation is based on the Ca^2+ signal after addition of Lys-Des-Arg^9-bradykinin (0.5 nM) or Des-Arg^9-bradykinin (100 nM). Antagonists result in a suppression of the Ca^2+ influx following administration of the agonist. The % inhibition in comparison with the maximum achievable inhibition is indicated.
Functional Investigation on the Bradykinin 1 Receptor (B1R)
The agonistic or antagonistic action of substances can be determined on the bradykinin 1 receptor (B1R) of the human and rat species with the following assay. According to this assay, the Ca^2+ inflow through the channel is quantified with the aid of a Ca^2+-sensitive dyes (Fluo-4 type, Molecular Probes Europe BV, Leiden, The Netherlands) in a fluorescent imaging plate reader (FLIPR, Molecular Devices, Sunnyvale, USA).
Chinese Hamster Ovary cells (CHO K1 cells) which are stably transfected with the human B1R gene (hB1R cells, Euroscreen s.a., Gosselies, Belgium) or the B1R gene of the rat (rB1R cells, Axxam, Milan, Italy) are used. For functional investigations, these cells are plated-out on black 96-well plates with a clear base (BD Biosciences, Heidelberg, Germany) in a density of 20,000-25,000 cells/well. Overnight, the cells are incubated at 37° C. and 5% CO2 in culture medium (hB1R cells: Nutrient Mixture Ham's F12, Gibco Invitrogen GmbH, Karlsruhe, Germany; rB1R cells: D-MEM/F12, Gibco Invitrogen, Karlsruhe, Germany) with 10 vol. % FBS (foetal bovine serum, Gibco Invitrogen GmbH, Karlsruhe, Germany). On the following day, the cells are loaded with 2.13 μM Fluo-4 (Molecular Probes Europe BV, Leiden, The Netherlands) in HBSS buffer (Hank's buffered saline solution, Gibco Invitrogen GmbH, Karlsruhe, Germany) […] (Sigma-Aldrich, Taufkirchen, Germany) and 10 mM HEPES (Sigma-Aldrich, Taufkirchen, Germany) for 60 min at 37° C. The plates are subsequently washed 2× with HBSS buffer, and HBSS buffer which additionally contains 0.1% BSA (bovine serum albumin; Sigma-Aldrich, Taufkirchen, Germany), 5.6 mM glucose and 0.05% gelatine (Merck KGaA, Darmstadt, Germany) is added. After a further incubation of 20 minutes at room temperature, the plates are inserted into the FLIPR for Ca^2+ measurement. The Ca^2+-dependent fluorescence is measured here before and after addition of substances (λex=488 nm, λem=540 nm). The quantification is effected by measurement of the highest fluorescence intensity (FC, fluorescence counts) over time.
The FLIPR protocol comprises 2 additions of substance. Test substances (10 μM) are first pipetted on to the cells and the Ca^2+ inflow is compared with the control (hB1R: Lys-Des-Arg^9-bradykinin 0.5 nM; rB1R: Des-Arg^9-bradykinin 100 nM). The value in % activation based on the Ca^2+ signal after addition of Lys-Des-Arg^9-bradykinin (0.5 nM) or Des-Arg^9-bradykinin (100 nM) is obtained therefrom. After incubation for 10 minutes, 0.5 nM Lys-Des-Arg^9-bradykinin (hB1R) or 100 nM Des-Arg^9-bradykinin (rB1R) are applied and the inflow of Ca^2+ is likewise determined. Antagonists lead to a suppression of the Ca^2+ inflow. % inhibition compared with the maximum inhibition which can be achieved is calculated. The compounds show a good activity on the human and on the rat receptor. The following data were determined by way of example: […]
With `COc1ccc(S(=O)(=O)N(C)CCOCC(=O)N2CCC(O)(Cc3ccccc3)CC2)cc1` [Example 28, N-{2-[2-(4-benzyl-4-hydroxy-piperidin-1-yl)-2-oxo-ethoxy]-ethyl}-4-methoxy-N-methyl-phenylsulfonamide], the inhibition at 10 µM worked out at 8.5%.

For the molecule `COc1cc(C)c(S(=O)(=O)N2CCCCC2COCCC(=O)N2CCC(O)(c3ccc(Cl)c(C(F)(F)F)c3)CC2)c(C)c1` (stereo not drawn) [Example 180, 1-(4-(4-chloro-3-(trifluoromethyl)phenyl)-4-hydroxypiperidin-1-yl)-3-((1-(4-methoxy-2,6-dimethylphenylsulfonyl)piperidin-2-yl)methoxy)propan-1-one], the inhibition at 10 µM was 39.9%.

In the case of `O=C(COCC1CCCCN1S(=O)(=O)c1ccc(Cl)c(Cl)c1)N1CCC(O)(c2cccnc2)CC1` (stereo not drawn) [Example 12, 2-[1-(3,4-dichloro-phenylsulfonyl)-piperidin-2-ylmethoxy]-1-(4′-hydroxy-3′,4′,5′,6′-tetrahydro-2′H-[3,4′]bipyridinyl-1′-yl)-ethanone], the inhibition at 10 µM came out at 55.1%.

`COc1ccc(S(=O)(=O)N2CCCC2COCC(=O)N2CCC(O)(Cc3ccccc3)CC2)cc1` (stereo not drawn) [Example 57, 1-(4-benzyl-4-hydroxy-piperidin-1-yl)-2-[1-(4-methoxy-phenylsulfonyl)-pyrrolidin-2-ylmethoxy]-ethanone]: the inhibition at 10 µM was -16.2%.

For `O=C(COCC1CCCCN1S(=O)(=O)c1ccc(Cl)cc1)N1CCC(O)(Cc2ccccc2)CC1` (stereo not drawn) [Example 53, 1-(4-benzyl-4-hydroxy-piperidin-1-yl)-2-[1-(4-chloro-phenylsulfonyl)-piperidin-2-ylmethoxy]-ethanone], the inhibition at 10 µM is -11.4%.

Turning to `COc1ccc(S(=O)(=O)N2CCCCC2COCC(=O)N2CCC(O)(Cc3ccccc3)CC2)c(OC)c1` (stereo not drawn) [Example 60, 1-(4-benzyl-4-hydroxy-piperidin-1-yl)-2-[1-(2,4-dimethoxy-phenylsulfonyl)-piperidin-2-ylmethoxy]-ethanone], the inhibition at 10 µM was -44%.

With `O=C(COC1CCN(S(=O)(=O)c2ccc(Cl)cc2)C1)N1CCC(O)(Cc2ccccc2)CC1` (stereo not drawn) [Example 31, 1-(4-benzyl-4-hydroxy-piperidin-1-yl)-2-[1-(4-chloro-phenylsulfonyl)-pyrrolidin-3-yloxy]-ethanone], the inhibition at 10 µM amounted to 6.81%.

Take `O=C(COCC1CCCN1S(=O)(=O)c1ccc(Cl)c(Cl)c1)N1CCC(O)(c2ccccn2)CC1` (stereo not drawn) [Example 36, 2-[1-(3,4-dichloro-phenylsulfonyl)-pyrrolidin-2-ylmethoxy]-1-(4′-hydroxy-3′,4′,5′,6′-tetrahydro-2′H-[2,4′]bipyridinyl-1′-yl)-ethanone]: the inhibition at 10 µM turned out to be 3.64%.

Consider `COc1ccc(S(=O)(=O)N2CCCCC2COCC(=O)N2CCC(O)(Cc3ccccc3)CC2)cc1` (stereo not drawn) [Example 35, 1-(4-benzyl-4-hydroxy-piperidin-1-yl)-2-[1-(4-methoxy-phenylsulfonyl)-piperidin-2-ylmethoxy]-ethanone], for which the inhibition at 10 µM came out at 5.08%.

`COc1cc(C)c(S(=O)(=O)N2CCCCC2COCCC(=O)N2CCC(O)(c3ccc(Br)cc3)CC2)c(C)c1` (stereo not drawn) [Example 182, 1-(4-(4-bromophenyl)-4-hydroxypiperidin-1-yl)-3-((1-(4-methoxy-2,6-dimethylphenylsulfonyl)piperidin-2-yl)methoxy)propan-1-one]: the inhibition at 10 µM was determined as 80%.

Consider `COc1cc(C)c(S(=O)(=O)N2CCCCC2COCCC(=O)N2CCC(O)(c3ccccc3)CC2)c(C)c1` (stereo not drawn) [Example 183, 1-(4-hydroxy-4-phenylpiperidin-1-yl)-3-((1-(4-methoxy-2,6-dimethylphenylsulfonyl)piperidin-2-yl)methoxy)propan-1-one], for which the inhibition at 10 µM was found to be 68.2%.

Consider `CN(CCOCC(=O)N1CCC(O)(Cc2ccccc2)CC1)S(=O)(=O)c1ccccc1` [Example 39, N-{2-[2-(4-benzyl-4-hydroxy-piperidin-1-yl)-2-oxo-ethoxy]-ethyl}-N-methyl-phenylsulfonamide], for which the inhibition at 10 µM is 2.99%.

With `COc1cc(C)c(S(=O)(=O)N2CCCCC2COCCC(=O)N2CCC(O)(Cc3ccccc3)CC2)c(C)c1` (stereo not drawn) [Example 179, 1-(4-benzyl-4-hydroxypiperidin-1-yl)-3-((1-(4-methoxy-2,6-dimethylphenylsulfonyl)piperidin-2-yl)methoxy)propan-1-one], the inhibition at 10 µM was found to be 61.5%.

With `O=C(COCC1CCCN1S(=O)(=O)c1ccc(Cl)c(Cl)c1)N1CCC(O)(c2cccnc2)CC1` (stereo not drawn) [Example 19, 2-[1-(3,4-dichloro-phenylsulfonyl)-pyrrolidin-2-ylmethoxy]-1-(4′-hydroxy-3′,4′,5′,6′-tetrahydro-2′H-[3,4′]bipyridinyl-1′-yl)-ethanone], the inhibition at 10 µM was determined as 23.2%.

As for `O=C(COC1CCN(S(=O)(=O)c2ccccc2)CC1)N1CCC(O)(Cc2ccccc2)CC1` [Example 37, 2-(1-phenylsulfonyl-piperidin-4-yloxy)-1-(4-benzyl-4-hydroxy-piperidin-1-yl)-ethanone], the inhibition at 10 µM is 3.4%.

For the molecule `COc1ccc(S(=O)(=O)N(C)CCOCC(=O)N2CCC(O)(Cc3ccccc3)CC2)cc1OC` [Example 16, N-{2-[2-(4-benzyl-4-hydroxy-piperidin-1-yl)-2-oxo-ethoxy]-ethyl}-3,4-dimethoxy-N-methyl-phenylsulfonamide], the inhibition at 10 µM was found to be 31.2%.

On to `COc1cc(C)c(S(=O)(=O)N2CCC(CCOCC(=O)N3CCC(O)(Cc4ccccc4)CC3)CC2)c(C)c1C` [Example 14, 1-(4-benzyl-4-hydroxy-piperidin-1-yl)-2-{2-[1-(4-methoxy-2,3,6-trimethyl-phenylsulfonyl)-piperidin-4-yl]-ethoxy}-ethanone], for which the inhibition at 10 µM amounted to 43.2%.

For the molecule `COc1cc(C)c(S(=O)(=O)N2CCN(CCOCC(=O)N3CCC(O)(Cc4ccccc4)CC3)CC2)c(C)c1C` [Example 18, 1-(4-benzyl-4-hydroxy-piperidin-1-yl)-2-{2-[4-(4-methoxy-2,3,6-trimethyl-phenylsulfonyl)-piperazin-1-yl]-ethoxy}-ethanone], the inhibition at 10 µM turned out to be 23.5%.

With `CN(CCOCC(=O)N1CCC(O)(Cc2ccccc2)CC1)S(=O)(=O)c1cccc(C(F)(F)F)c1` [Example 38, N-{2-[2-(4-benzyl-4-hydroxy-piperidin-1-yl)-2-oxo-ethoxy]-ethyl}-N-methyl-3-trifluoromethyl-phenylsulfonamide], the inhibition at 10 µM worked out at 3.28%.

For the molecule `COc1cc(C)c(S(=O)(=O)N2CCC(OCCC(=O)N3CCC(O)(c4ccc(Br)cc4)CC3)C2)c(C)c1` (stereo not drawn) [Example 187, 1-(4-(4-bromophenyl)-4-hydroxypiperidin-1-yl)-3-(1-(4-methoxy-2,6-dimethylphenylsulfonyl)pyrrolidin-3-yloxy)propan-1-one], the inhibition at 10 µM was found to be 99.9%.

Turning to `COc1cc(C)c(S(=O)(=O)N(CCOCC(=O)N2CCC(O)(Cc3ccccc3)CC2)Cc2ccccc2)c(C)c1C` [Example 13, N-benzyl-N-{2-[2-(4-benzyl-4-hydroxy-piperidin-1-yl)-2-oxo-ethoxy]-ethyl}-4-methoxy-2,3,6-trimethyl-phenylsulfonamide], the inhibition at 10 µM was 50.7%.

Usually inhibition stands for the change of the read-out against control, counted positive when it falls.
